Target: T1, aryl hydrocarbon receptor (AHR) (Homo sapiens, UniProt P35869)
T1 sequence (P35869 11-848): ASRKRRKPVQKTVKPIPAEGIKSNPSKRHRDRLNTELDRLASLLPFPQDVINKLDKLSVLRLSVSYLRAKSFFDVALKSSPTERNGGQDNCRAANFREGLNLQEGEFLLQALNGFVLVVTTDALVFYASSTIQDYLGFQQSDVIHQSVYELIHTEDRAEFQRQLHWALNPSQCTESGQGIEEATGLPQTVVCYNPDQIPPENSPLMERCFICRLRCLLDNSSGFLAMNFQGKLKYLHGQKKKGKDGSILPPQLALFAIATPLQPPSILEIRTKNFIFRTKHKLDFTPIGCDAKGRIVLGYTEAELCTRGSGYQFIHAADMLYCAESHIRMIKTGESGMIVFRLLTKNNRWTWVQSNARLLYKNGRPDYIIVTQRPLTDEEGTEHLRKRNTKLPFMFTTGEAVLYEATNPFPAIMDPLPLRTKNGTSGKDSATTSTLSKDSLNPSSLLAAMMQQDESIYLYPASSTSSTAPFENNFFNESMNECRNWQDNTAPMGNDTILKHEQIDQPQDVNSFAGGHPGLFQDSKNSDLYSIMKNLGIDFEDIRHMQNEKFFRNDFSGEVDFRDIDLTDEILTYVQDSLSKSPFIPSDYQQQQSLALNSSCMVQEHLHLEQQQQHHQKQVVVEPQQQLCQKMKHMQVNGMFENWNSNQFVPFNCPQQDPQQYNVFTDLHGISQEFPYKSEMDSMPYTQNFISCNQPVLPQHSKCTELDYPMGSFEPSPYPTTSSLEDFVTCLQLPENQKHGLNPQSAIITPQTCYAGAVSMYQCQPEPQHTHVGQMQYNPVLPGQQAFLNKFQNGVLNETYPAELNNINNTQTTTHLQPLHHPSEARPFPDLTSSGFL
Test: DRE-Luciferase reporter high-throughput screen (AHR antagonist, VAF347-activated)
From the text: HepG2 hepatocellular carcinoma cells were transfected with a dioxin-response element (DRE) Firefly luciferase reporter construct. Luciferase transcription was activated with the aryl hydrocarbon receptor (AHR) agonist, VAF347. Addition of an AHR antagonist results in inhibition of the luciferase transcription and a loss of signal in the assay.
HepG2, a hepatocellular carcinoma cell line, was transfected with the dioxin-response element Firefly luciferase reporter construct using the TransIT-transfection system. Prior to transfection, HepG2 cells (Sigma) were cultured at 90% confluency in Eagle's Modified Essential Medium (Sigma)+2 mM Glutamine (Sigma), +1^% Non Essential Amino Acids (Sigma)+10% Fetal Bovine Serum (Hyclone) and harvested and counted (Biorad TC20 cell counter). OptilMEM serum-free media and TransIT (Mirus) were mixed for transfection in 150 mm dishes by adding 240 μL Transit to 3.0 mL OptiMEM, vortexing briefly to mix, and incubating at room temperature for 20 minutes. The DNA mixture was prepared by adding 80 μg plasmid (pGudLuc6.1 plasmid, Garrison et al., (1996) Fundam. Appl. Toxicol., 30, 194-203), inverting to mix, and incubating at room temperature for 30 minutes. 30×10^6 HepG2 cells were seeded in 30 mL media and 3.3 mL of the DNA, OptiMEM, and TransIT mixture was added dropwise to the plate. The plate was mixed by rocking and incubated at 37° C./5% CO2 overnight. The next day, cells were harvested by aspirating media, washing once with sterile phosphate buffered saline (PBS, Gibco), trypsinzing with 0.05% Trypsin (Corning) and harvesting cells with culture medium, and freezing with Cell Freezing Media (Gibco) at 5 50×10^6 cells/vial in 1 mL/vial.
Transiently-transfected frozen HepG2 cells with DRE-Luciferase, were thawed in a 37° C. water bath and resuspended in complete media. 4 μL cells at 15,000 cells per well was transferred into the wells of a 1536-well Alphaplate assay plate (PerkinElmer) using TEMPEST liquid dispenser. The plate was centrifuged at 1000 rpm for 1 minute. 30 nL of the controls (1 μM (S)-2-(6-((2-(1H-indol-3-yl)ethyl)amino)-2-(5-fluoropyridin-3-yl)-9H-purin-9-yl)propan-1-ol or 100% DMSO) were transferred to the assay plate using the Pin Tool on BRAVO. 1 μL of VAF347 (15 nM final concentration) in complete media was added to the wells using TEMPEST. The plate was centrifuged at 1000 rpm for 1 minute and incubated at 37° C./5% CO2 overnight. After incubation, the plate was removed from the incubator and brought to room temperature. 2 μL of room temperature Steady-Glo luciferase detection reagent (Promega) was added to the wells with TEMPEST. The plate was centrifuged at 2000 rpm for 1 minute, sealed with clear plastic seal and kept at room temperature for 15 minutes prior to measuring luminescence on ENVISION.
Approximately 166,000 compounds were screened in 132 1536-well plates in the luciferase reporter gene assay at a final concentration of 12 μM. […] Each compound was tested at 0.1 μM, 1.0 μM, and 10 μM in the DRE luciferase assay and Cell Titer Glo cytotoxicity assay (Promega). […] 512 compounds were selected for 10-point dose-response in the AHR luciferase reporter assay and the Cell Titer Glo cytotoxicity assay.

IC50 [nM] | Structure (SMILES)
> 2000 | Cn1c(CCC(=O)OCC(=O)N2c3ccccc3CCc3ccccc32)nc2ccccc2c1=O [127B]
500 to 1000 | Clc1ccc(-c2ncc(-c3cc[nH]n3)s2)cc1 [compound 64]
> 2000 | CS(=O)(=O)c1csc(C(=O)Nc2cccc(Cl)c2)c1Cl [18B]
1000 to 2000 | COc1ccc(-c2cnn3c(C)cc(C)nc23)cc1OC [71B]
1000 to 2000 | O=C(Nc1ccc(-c2nccs2)cc1)c1ccc(CN2C(=O)CNC2=O)cc1 [10A]
> 2000 | Cc1ccc(NC(=O)CN(C)C(C)c2cccs2)c(F)c1 (centres unmarked) [147A]
1000 to 2000 | Cc1ccc(NC(=O)CSc2nnc(C)c3ccccc23)cc1 [160A]
1000 to 2000 | Cc1nccc(-c2cc(-c3ccc(Cl)cc3Cl)no2)n1 [131A]
1000 to 2000 | Cc1ccc(S(=O)(=O)N=C(N)Nc2nc(C)c3cc(C)ccc3n2)cc1 [164A]
500 to 1000 | CN(C)C(=O)c1ccc(-c2cc(C(F)(F)F)nn2C)s1 [59B]
1000 to 2000 | CCc1nnc(-c2ccc(NC(=O)c3ccccc3OC)cc2)o1 [3A]
> 2000 | Cc1nc(NC(=O)c2cc(C(C)(C)C)n[nH]2)sc1SCC#N [34A]
1000 to 2000 | Clc1ccc(Nc2nnc(-c3ccncc3)s2)cc1 [98B]
1000 to 2000 | c1ccc(-c2nc(COc3cccc(-n4cnnn4)c3)cs2)cc1 [54A]
> 2000 | C=C(Cc1nnc(C(C)C)s1)c1cn(CCOC)cc2c(=O)n(-c3ccccc3)nc1-2 [175A]
> 2000 | Cc1csc(-c2ccc(NC(=O)NCc3cc(C)on3)cc2)n1 [62A]
1000 to 2000 | Cc1ccc(-c2cc(C(=O)NCc3cccnc3)c3cc(Br)ccc3n2)cc1 [155A]
1000 to 2000 | Cn1c(Cl)cnc1-c1cc(=O)c2cc(Cl)ccc2o1 [53B]
500 to 1000 | CCC(=O)N1CCc2nc(-c3ccccc3)sc2C1 [compound 147]
> 2000 | CSc1nccc(NC(=O)c2cccc(C(F)(F)F)c2)n1 [14A]
500 to 1000 | Cc1cc(-c2ccccc2)nc2c1/C(=N\O)CC(C)(C)C2 [104B]
500 to 1000 | COc1ccc(NC(=O)CSc2nnc(-c3sc4nc(C)cc(C)c4c3N)o2)cc1 [82B]
1000 to 2000 | COc1ccc(C(=O)Nc2cc(C)cc(C)n2)cc1 [9B]
> 2000 | Fc1ccc(-c2ccc(-c3nnc4n3CCCCC4)s2)cc1 [149A]

IC50 [nM] | Structure (SMILES)
200 to 500 | Cc1cccn2c(=O)c3cc(C(=O)NCc4ccccc4Cl)sc3nc12 [125B]
1000 to 2000 | Cc1[nH]c2c(C(=O)Nc3cccc(CN4CCOC4=O)c3)cccc2c1C [40A]
> 2000 | COc1cccc(Nc2ccc(-c3ccccc3)nn2)c1 [88A]
1000 to 2000 | CNc1nc(-c2sc3ncnn3c2C)cs1 [40B]
500 to 1000 | Cc1cccc(N2CC[C@H]3[C@H]2CCN3c2ncccn2)n1 [115B]
> 2000 | COc1ccc(CC(=O)Nc2ccc(-c3csc(C)n3)cc2)cc1 [143A]
1000 to 2000 | c1ccc(-c2ccc(OCc3ccno3)cc2)cc1 [130A]
500 to 1000 | CCC(C)C(=O)Nc1ccc(-c2nnc(-c3ccccc3C)o2)cc1 (centres unmarked) [83B]
1000 to 2000 | O=C(Nc1ncccc1Br)c1cc(-n2cccn2)ccn1 [17A]
> 2000 | O=C(Nc1ccc2[nH]c(-c3ccc(Br)o3)nc2c1)c1ccc([N+](=O)[O-])cc1 [41A]
1000 to 2000 | Cc1ccc(C(=O)Nc2nc3c(C)cc(C)cc3s2)cc1 [22B]
1000 to 2000 | COc1ccc([N+](=O)[O-])cc1-c1ccc(/C=N/Nc2ccccc2)o1 [44B]
1000 to 2000 | COc1cccc(C(=O)Nc2cnc(-c3ccccc3)nc2)c1 [16A]
500 to 1000 | N#Cc1cnc2c(-c3ccc(Cl)cc3)cnn2c1 [70B]
1000 to 2000 | CCC1CCc2c(sc(NC(=O)c3c(C)noc3C)c2C(N)=O)C1 (centres unmarked) [31B]
1000 to 2000 | COc1ccc(C2=Nn3c(nc4ccsc4c3=O)SC2)cc1 [126B]
500 to 1000 | CC(=O)Oc1ccc2c(=O)c(-c3cnn(-c4ccccc4)c3)coc2c1C [56B]
> 2000 | FC(F)(F)c1nnc2ccc(N3CCN(c4ccccc4)CC3)nn12 [73A]
1000 to 2000 | CCn1cc(C(=O)Nc2ccc(C(C)C)cc2)cn1 [23A]
1000 to 2000 | Cn1c(N)c(C(=O)CSc2ccc(F)cc2)c(=O)n(C)c1=O [195A]
200 to 500 | O=[N+]([O-])c1cccc(-c2csc(-c3cccc(-n4cnc(Cl)c4Cl)c3)n2)c1 [compound 51]
> 2000 | CSc1ccccc1NC(=O)c1ccc(-c2ccccc2)cc1 [4B]
1000 to 2000 | Cc1ccc(OCc2nc(N)nc(N(C)C)n2)cc1C [51B]
> 2000 | Cc1cc(C)nc(N2CCN(c3ccc(Cl)cc3)CC2)n1 [70A]

IC50 [nM] | Structure (SMILES)
500 to 1000 | COc1ccc(CC(=O)Nc2ccc(-c3nccs3)cc2)cc1S(=O)(=O)N1CCOCC1 [compound 63]
1000 to 2000 | CCCN(C(=O)C1CC1)c1nnc(-c2ccc(Cl)cc2)s1 [144A]
1000 to 2000 | CC(C)NC(=O)c1ccc2c(-c3nccs3)noc2c1 [65A]
500 to 1000 | CCCn1ncc(C(=O)Nc2ccc(N3CCCCC3)c(F)c2)c1C [compound 35]
500 to 1000 | O=C(Nc1ccc(Cl)cn1)C1Cc2ccccc2C1 [26B]
> 2000 | CCCNC(=O)c1cc2sc(Cl)cc2n1C [180A]
500 to 1000 | CC(C)CCNC(=O)c1cc2c(=O)n(C)c3ccccc3c2s1 [compound 145]
1000 to 2000 | Cc1ccc(NC(=O)c2cc3ccccc3n(C)c2=O)cc1 [29B]
1000 to 2000 | c1ccc(-c2nc(CSc3nncn3-c3ccccc3)co2)cc1 [133A]
1000 to 2000 | COc1ccccc1C(=O)Nc1c(C)cc(C)c2cccnc12 [27B]
1000 to 2000 | COC(=O)c1sc(-c2ccc(CC(C)C)cc2)cc1N [146A]
> 2000 | Cc1cc(NC(=O)c2nnn(-c3ccccc3)c2C)no1 [19B]
> 2000 | CN1CCN(c2nc(-c3cc(F)ccc3F)cs2)CC1 [56A]
1000 to 2000 | CCN(C(=O)C1CC1)c1nc(-c2ccc(OC)cc2)cs1 [58A]
1000 to 2000 | O=C(Nc1cccc(Cl)c1)c1ccc(-n2cccn2)c([N+](=O)[O-])c1 [4A]
> 2000 | CCOc1ccc(-c2ccc(SCC)nn2)cc1 [90A]
200 to 500 | COc1ccccc1N(C(=O)c1ccc(O)nc1)c1nc(-c2ccc([N+](=O)[O-])cc2)cs1 [compound 56]
> 2000 | Cc1cc(C)n(-c2ccc(NC(=O)c3ccc(OC(F)F)cc3)cc2F)n1 [9A]
500 to 1000 | O=[N+]([O-])c1cccc(-c2ccc(SCc3ccccc3F)nn2)c1 [48B]
1000 to 2000 | COc1cccc(-c2nn3c(-c4ccccn4)nnc3s2)c1 [98A]
> 2000 | N#Cc1ccccc1OCc1ccc(C(N)=O)cc1 [142A]
> 2000 | O=C(c1cc2sc3ccccc3c2s1)N1CCCCC1 [186A]
200 to 500 | COC(=O)c1cnn(-c2cc(Nc3c(F)cccc3F)ncn2)c1N [compound 86]
> 2000 | COc1ccc(N2CCN(c3cc(C)nn4cnnc34)CC2)cc1 [74A]

IC50 [nM] | Structure (SMILES)
1000 to 2000 | CCn1c2ccccc2c2nnc(-n3nc(C)cc3C)nc21 [122B]
500 to 1000 | Clc1ccc(-c2noc(-c3csnn3)n2)cc1 [84B]
> 2000 | C/C(=N\CCc1ccccc1)c1c(C(F)(F)F)[nH]n(-c2nc3ccccc3s2)c1=O [153A]
1000 to 2000 | Cc1ccc(-n2nnc(-c3ccc(Cl)cc3)n2)cc1 [110A]
1000 to 2000 | N#Cc1ccc(OCc2ncc(C(F)(F)F)cc2Cl)cc1 [93A]
1000 to 2000 | COc1ccc(OCc2nc(-c3cccc(F)c3)cs2)cc1 [34B]
500 to 1000 | N#Cc1c(N)c(-c2ccc(F)cc2)cn2c1nc1ccccc12 [120B]
500 to 1000 | c1ccc(-c2nc(-c3ccc4c(c3)CCO4)no2)cc1 [85B]
1000 to 2000 | Cc1c(Br)c(C(=O)N2CCc3ccccc32)nn1C [61B]
> 2000 | N#Cc1c(-c2ccc(Br)cc2)csc1N1CCCCC1 [150A]
200 to 500 | CN(C)c1cccc(-c2nnc(-c3ccc(C(F)(F)F)cc3)[nH]2)c1 [compound 97]
500 to 1000 | CN(CC(=O)NC(=O)Nc1ccccc1)Cc1ccc(Cl)s1 [compound 153]
1000 to 2000 | CCN(CC)c1ccc(NC(=O)c2cccnc2O)cc1 [12A]
1000 to 2000 | CN(c1nnc(NC(=O)Nc2ccccc2C(F)(F)F)s1)C1CCCCC1 [145A]
1000 to 2000 | Clc1ccccc1CNc1ccc(-c2nc3ncccc3o2)cc1 [172A]
> 2000 | O=C(Nc1ccc(-c2cnc(C3CC3)o2)cc1)c1cccc(F)c1 [2A]
1000 to 2000 | Cc1ccc(-c2nc(Cn3cnc(C#N)n3)co2)c(C)c1 [134A]
1000 to 2000 | COc1ccc(N2CCN(c3nc(OC)nc(OC)n3)CC2)cc1 [68A]
1000 to 2000 | O=C(NCCC1=CCCCC1)c1[nH]nc2c1CCCC2 [109B]
200 to 500 | O=C(NCCc1ccc(Cl)cc1)c1cccc2nsnc12 [107B]
1000 to 2000 | N#Cc1ccc(N2CCN(C(=O)Nc3cccc(C(F)(F)F)c3)CC2)nc1 [80A]
> 2000 | Clc1ccc(/C=N/Nc2nc3cc(Cl)ccc3[nH]2)cc1 [83A]

Structure (SMILES) | IC50 [nM]
COc1ccc(N2CCN(c3nc(C(F)(F)F)cs3)CC2)cc1 [compound 111] | 500 to 1000
